Reference: ChEMBL document CHEMBL1201862, “PubChem BioAssay data set” (2004)
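Assay format: 96-well plates, 48-hour exposure. GI50 is the concentration that inhibits growth by half.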 The source made the active and inactive calls. Rule as the data show it: active = GI50 up to about 1.1 µM and inactive = higher.

How the values were obtained:
Experiment in all cases: growth of human tumour cells (NCI), 48 h
[1] = tested on: A498
[2] = tested on: CAKI-1
[3] = tested on: DU-145
[4] = tested on: HOP-92
[5] = tested on: HT-29
[6] = tested on: IGROV-1
[7] = tested on: KM12
[8] = tested on: Malme-3M
[9] = tested on: NCI-H23
[10] = tested on: NCI-H460
[11] = tested on: OVCAR-5
[12] = tested on: RPMI-8226
[13] = tested on: RXF 393
[14] = tested on: SF-268
[15] = tested on: SF-295
[16] = tested on: SK-MEL-2
[17] = tested on: SK-MEL-5
[18] = tested on: SW-620
[19] = tested on: TK-10
[20] = tested on: U-251

| Structure (SMILES) | GI50 [1] | GI50 [2] | GI50 [3] | GI50 [4] | GI50 [5] | GI50 [6] | GI50 [7] | GI50 [8] | GI50 [9] | GI50 [10] | GI50 [11] | GI50 [12] | GI50 [13] | GI50 [14] | GI50 [15] | GI50 [16] | GI50 [17] | GI50 [18] | GI50 [19] | GI50 [20] |
| --- | --- | --- | --- | --- | --- | --- | --- | --- | --- | --- | --- | --- | --- | --- | --- | --- | --- | --- | --- | --- |
| CCOC(=O)CCC(NC(=O)c1ccc(/N=C/c2nc3cc(C(F)(F)F)ccc3nc2-c2ccccc2)cc1)C(=O)OCC (stereo not given) | 23.4 µM (inactive) | 32.4 µM (inactive) | 34.1 µM (inactive) | 4.88 µM (inactive) | > 50 µM (inactive) | 15.3 µM (inactive) | 18.3 µM (inactive) | 6.4 µM (inactive) | 7.82 µM (inactive) | 24 µM (inactive) | > 50 µM (inactive) | > 50 µM (inactive) | 7.14 µM (inactive) | 8.34 µM (inactive) | 9.84 µM (inactive) | 11.3 µM (inactive) | 25.1 µM (inactive) | > 50 µM (inactive) | 12.1 µM (inactive) | 6.07 µM (inactive) |
| CC12CCC(C(Nc3ccccn3)C1=O)C2(C)C (stereo not given) | > 100 µM (inactive) | > 100 µM (inactive) | > 100 µM (inactive) | > 100 µM (inactive) | > 100 µM (inactive) | > 100 µM (inactive) | > 100 µM (inactive) | > 100 µM (inactive) | > 100 µM (inactive) | > 100 µM (inactive) | > 100 µM (inactive) | > 100 µM (inactive) | > 100 µM (inactive) | > 100 µM (inactive) | > 100 µM (inactive) | > 100 µM (inactive) | > 100 µM (inactive) | > 100 µM (inactive) | > 100 µM (inactive) | > 100 µM (inactive) |
| CCOc1ccccc1/N=N/C1C(=O)N(C(=O)CC(=O)Nc2ccccc2Cl)N=C1C (stereo not given) | 50.1 µM (inactive) | > 100 µM (inactive) | > 100 µM (inactive) | 20.3 µM (inactive) | > 100 µM (inactive) | 64.6 µM (inactive) | > 100 µM (inactive) | > 100 µM (inactive) | > 100 µM (inactive) | 40.2 µM (inactive) | > 100 µM (inactive) | 27.2 µM (inactive) | > 100 µM (inactive) | 33.7 µM (inactive) | 37.6 µM (inactive) | > 100 µM (inactive) | > 100 µM (inactive) | > 100 µM (inactive) | 81.8 µM (inactive) | 42.7 µM (inactive) |
| COc1ccc(/N=N/c2ccc3oc(=O)c(C(=O)Nc4ccccc4C)cc3c2)cc1 | > 10 µM (inactive) | > 10 µM (inactive) | > 10 µM (inactive) | > 10 µM (inactive) | > 10 µM (inactive) | > 10 µM (inactive) | > 10 µM (inactive) | > 10 µM (inactive) | > 10 µM (inactive) | > 10 µM (inactive) | > 10 µM (inactive) | > 10 µM (inactive) | > 10 µM (inactive) | > 10 µM (inactive) | > 10 µM (inactive) | > 10 µM (inactive) | > 10 µM (inactive) | > 10 µM (inactive) | > 10 µM (inactive) | > 10 µM (inactive) |
| C/C(=N\N=C(/[SeH])N1CC2CCC(CC2)C1)c1ccccn1 | 0.196 µM (active) | 0.293 µM (active) | 0.927 µM (active) | 0.169 µM (active) | < 0.01 µM (active) | 0.0169 µM (active) | 0.094 µM (active) | 0.0506 µM (active) | 0.052 µM (active) | 0.0568 µM (active) | 0.179 µM (active) | < 0.01 µM (active) | 0.0291 µM (active) | 0.161 µM (active) | 0.0673 µM (active) | 0.156 µM (active) | 0.051 µM (active) | 0.0139 µM (active) | 0.762 µM (active) | 0.091 µM (active) |
| CN(C)CCCNC(=O)c1cc(NS(=O)(=O)c2ccc3c(c2)C(=O)c2ccccc2C3=O)cn1C | 23.2 µM (inactive) | 67.6 µM (inactive) | 40.3 µM (inactive) | 32.1 µM (inactive) | 28.8 µM (inactive) | 33 µM (inactive) | 17.8 µM (inactive) | 5.5 µM (inactive) | 24.1 µM (inactive) | 18.8 µM (inactive) | 35.6 µM (inactive) | 14.8 µM (inactive) | 28 µM (inactive) | 29.5 µM (inactive) | 31.3 µM (inactive) | 40.5 µM (inactive) | 13.1 µM (inactive) | 46.3 µM (inactive) | 25.2 µM (inactive) | 29.1 µM (inactive) |
| N#Cc1nc(C(F)(F)F)oc1N | > 100 µM (inactive) | > 100 µM (inactive) | > 100 µM (inactive) | > 100 µM (inactive) | > 100 µM (inactive) | > 100 µM (inactive) | > 100 µM (inactive) | > 100 µM (inactive) | > 100 µM (inactive) | > 100 µM (inactive) | > 100 µM (inactive) | > 100 µM (inactive) | > 100 µM (inactive) | > 100 µM (inactive) | > 100 µM (inactive) | > 100 µM (inactive) | > 100 µM (inactive) | > 100 µM (inactive) | > 100 µM (inactive) | > 100 µM (inactive) |
| CN1CSC(=S)N(c2cccc(C(F)(F)F)c2)C1 | 28.3 µM (inactive) | 26.4 µM (inactive) | 41.9 µM (inactive) | 18.9 µM (inactive) | 22.5 µM (inactive) | 18.7 µM (inactive) | 22.4 µM (inactive) | 18.7 µM (inactive) | 17.9 µM (inactive) | 20.2 µM (inactive) | 18.6 µM (inactive) | 17.5 µM (inactive) | 37.2 µM (inactive) | 23.1 µM (inactive) | 21.8 µM (inactive) | 21.3 µM (inactive) | 17.1 µM (inactive) | 31.6 µM (inactive) | 28.6 µM (inactive) | 32 µM (inactive) |
| CN(C)S(=O)(=O)c1ccc(Nc2ccc(O)c3c2C(=O)c2c([N+](=O)[O-])ccc(O)c2C3=O)cc1 | > 100 µM (inactive) | > 100 µM (inactive) | > 100 µM (inactive) | > 100 µM (inactive) | > 100 µM (inactive) | > 100 µM (inactive) | > 100 µM (inactive) | 57.4 µM (inactive) | > 100 µM (inactive) | > 100 µM (inactive) | > 100 µM (inactive) | > 100 µM (inactive) | > 100 µM (inactive) | > 100 µM (inactive) | > 100 µM (inactive) | > 100 µM (inactive) | 72.3 µM (inactive) | 92.3 µM (inactive) | 56.4 µM (inactive) | > 100 µM (inactive) |
